Assay results published in patent publication EP0505640B2, “Improved therapeutic method” (ELI LILLY AND COMPANY, priority 1991, dated 1992).
Read-outs that look alike come from different tables or passages of the source.

Experiments:
bovine FBP = bovine FBP (Bos taurus, UniProt P02702); test: Folate binding constant, procedure of Dunn and Foster
Experimental: As noted above, the drug products which can be employed in the present invention include other GAR-transformylase or TS inhibitors which are capable of binding to folate binding protein. Folic acid itself has a binding constant (ng/ml) of 1.8, and lometrexol has a binding constant of 9.7 to bovine FBP. Any GAR-transformylase or TS inhibitor that binds at less than about 500 ng/ml can be utilized in the method of this invention. The folate binding constant for drug products can be readily determined by the general procedure of Dunn and Foster, Clin. Chem., 19 (10), 1101-1105 (1973).

[1] = tested on: C3H strain of mammary adenocarcinoma; test: Antitumor activity against implanted C3H mammary adenocarcinoma in mice; type: in vivo
Experimental: (§1) In one such test, mice are inoculated with the C3H strain of mammary adenocarcinoma by inserting a 2 mm by 2 mm section of tumor into the axillary region of the mice by trocar. In all experiments, lometrexol was administered intraperitoneally once a day for five consecutive days, starting on the day following tumor implantation. Ten animals were used at each dosage level. Antitumor activity was assessed on day ten by measuring the length and width of the tumor growth using vernier calipers, and the activity was expressed as a percent inhibition of tumor growth.

C3H Mice = test: Toxicity measured as death of tumor-bearing C3H mice; type: in vivo
Experimental: as §1

[2] = tested on: nasalpharyngeal carcinoma; details: one subject with nasalpharyngeal carcinoma, folic acid 0.5 to 1.0 mg/day, after the 12 months of therapy
[3] = read-out: Binding Constant, folate binding protein

Sequence of bovine FBP (P02702 20-234): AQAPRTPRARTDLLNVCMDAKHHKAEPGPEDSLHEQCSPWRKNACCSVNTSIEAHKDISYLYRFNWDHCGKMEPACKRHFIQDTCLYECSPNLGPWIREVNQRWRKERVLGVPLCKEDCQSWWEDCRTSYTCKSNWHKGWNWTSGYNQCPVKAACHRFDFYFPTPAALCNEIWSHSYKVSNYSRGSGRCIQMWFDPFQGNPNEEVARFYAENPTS

Nc1nc(O)c2c(n1)NCC(CCc1ccc(C(=O)NC(CCC(=O)O)C(=O)O)o1)C2 (stereo not shown)
Kd (bovine FBP; [3]): 579 nM

Nc1nc(O)c2c(n1)NCC(CCc1ccc(C(=O)NC(CCC(=O)O)C(=O)O)s1)C2 (stereo not shown)
Kd (bovine FBP; [3]): 54.5 nM

Nc1nc(O)c2c(n1)NCC(CCC1CCC(C(=O)NC(CCC(=O)O)C(=O)O)CC1)C2 (stereo not shown)
Kd (bovine FBP; [3]): 57.8 nM

C#CCN(Cc1ccc2[nH]c(N)nc(=O)c2c1)c1ccc(C(=O)NC(CCC(=O)O)C(=O)O)cc1 (stereo not shown)
Kd (bovine FBP; [3]): 25.1 nM

Cc1nc2ccc(CN(C)c3ccc(C(=O)NC(CCC(=O)O)C(=O)O)s3)cc2c(=O)[nH]1 (stereo not shown)
Kd (bovine FBP; [3]): 534 nM

Nc1nc2ncc(CNc3ccc(C(=O)N[C@@H](CCC(=O)O)C(=O)O)cc3)nc2c(=O)[nH]1 [Folic acid]
Kd (bovine FBP; folate binding protein, read-out: Binding Constant (converted)): 4.08 nM

Nc1nc2c(c(=O)[nH]1)CC(CCc1ccc(C(=O)N[C@@H](CCC(=O)O)C(=O)O)cc1)CN2 (stereo partly shown) [Lometrexol, 5,10-dideazatetrahydrofolic acid]
Kd (bovine FBP): 21.9 nM
Antitumor Activity (% Inhibition) ([1]; Lometrexol 0.0625 mg/kg i.p. once a day for five days, two weeks on folate-free diet, assessed day ten): 0%
Antitumor Activity (% Inhibition) ([1]; Lometrexol 0.125 mg/kg i.p. once a day for five days, folate-free diet plus 0.0003% folate in drinking water, day ten): 13%
Antitumor Activity (% Inhibition) ([1]; Lometrexol 0.125 mg/kg i.p. once a day for five days, two weeks on folate-free diet, assessed day ten): 0%
Antitumor Activity (% Inhibition) ([1]; Lometrexol 0.25 mg/kg i.p. once a day for five days, folate-free diet plus 0.0003% folate in drinking water, day ten): 26%
Antitumor Activity (% Inhibition) ([1]; Lometrexol 0.25 mg/kg i.p. once a day for five days, two weeks on folate-free diet, assessed day ten): 21%
Antitumor Activity (% Inhibition) ([1]; Lometrexol 0.5 mg/kg i.p. once a day for five days, folate-free diet plus 0.0003% folate in drinking water, day ten): 48%
Antitumor Activity (% Inhibition) ([1]; Lometrexol 0.5 mg/kg i.p. once a day for five days, two weeks on folate-free diet, assessed day ten): 88%
Antitumor Activity (% Inhibition) ([1]; Lometrexol 1.0 mg/kg i.p. once a day for five days, folate-free diet plus 0.0003% folate in drinking water, day ten): 97%
Antitumor Activity (% Inhibition) ([1]; Lometrexol 1.0 mg/kg i.p. once a day for five days, two weeks on folate-free diet, assessed day ten): 100%
Antitumor Activity (% Inhibition) ([1]; Lometrexol 2.0 mg/kg i.p. once a day for five days, folate-free diet plus 0.0003% folate in drinking water, day ten): 98%
Antitumor Activity (% Inhibition) ([1]; Lometrexol 4.0 mg/kg i.p. once a day for five days, folate-free diet plus 0.0003% folate in drinking water, day ten): 99%
Antitumor Activity (% Inhibition) ([1]; Lometrexol 6.25 mg/kg i.p. once a day for five days, folate-free diet plus 0.003% folate in drinking water, day ten): 91%
Antitumor Activity (% Inhibition) ([1]; Lometrexol 12.5 mg/kg i.p. once a day for five days, folate-free diet plus 0.003% folate in drinking water, day ten): 89%
Antitumor Activity (% Inhibition) ([1]; Lometrexol 25 mg/kg i.p. once a day for five days, folate-free diet plus 0.003% folate in drinking water, day ten): 97%
Antitumor Activity (% Inhibition) ([1]; Lometrexol 50 mg/kg i.p. once a day for five days, folate-free diet plus 0.003% folate in drinking water, day ten): 96%
Toxicity (Mice Dead/Total Mice) (C3H Mice; Lometrexol 0.0625 mg/kg i.p. once a day for five days, two weeks on folate-free diet): 0/10
Toxicity (Mice Dead/Total Mice) (C3H Mice; Lometrexol 0.125 mg/kg i.p. once a day for five days, folate-free diet plus 0.0003% folate in drinking water): 0/10
Toxicity (Mice Dead/Total Mice) (C3H Mice; Lometrexol 0.125 mg/kg i.p. once a day for five days, two weeks on folate-free diet): 0/10
Toxicity (Mice Dead/Total Mice) (C3H Mice; Lometrexol 0.25 mg/kg i.p. once a day for five days, folate-free diet plus 0.0003% folate in drinking water): 0/10
Toxicity (Mice Dead/Total Mice) (C3H Mice; Lometrexol 0.25 mg/kg i.p. once a day for five days, two weeks on folate-free diet): 0/10
Toxicity (Mice Dead/Total Mice) (C3H Mice; Lometrexol 0.5 mg/kg i.p. once a day for five days, folate-free diet plus 0.0003% folate in drinking water): 0/10
Toxicity (Mice Dead/Total Mice) (C3H Mice; Lometrexol 0.5 mg/kg i.p. once a day for five days, two weeks on folate-free diet): 0/10
Toxicity (Mice Dead/Total Mice) (C3H Mice; Lometrexol 1.0 mg/kg i.p. once a day for five days, folate-free diet plus 0.0003% folate in drinking water): 0/10
Toxicity (Mice Dead/Total Mice) (C3H Mice; Lometrexol 1.0 mg/kg i.p. once a day for five days, two weeks on folate-free diet): 8/10
Toxicity (Mice Dead/Total Mice) (C3H Mice; Lometrexol 1.0 mg/kg i.p. once a day for five days, two weeks on folate-free diet, listed as lometrexol): lethal to the majority of the mice
Toxicity (Mice Dead/Total Mice) (C3H Mice; Lometrexol 2.0 mg/kg i.p. once a day for five days, folate-free diet plus 0.0003% folate in drinking water): 0/10
Toxicity (Mice Dead/Total Mice) (C3H Mice; Lometrexol 4.0 mg/kg i.p. once a day for five days, folate-free diet plus 0.0003% folate in drinking water): 4/10
Toxicity (Mice Dead/Total Mice) (C3H Mice; Lometrexol 6.25 mg/kg i.p. once a day for five days, folate-free diet plus 0.003% folate in drinking water): 0/10
Toxicity (Mice Dead/Total Mice) (C3H Mice; Lometrexol 12.5 mg/kg i.p. once a day for five days, folate-free diet plus 0.003% folate in drinking water): 0/10
Toxicity (Mice Dead/Total Mice) (C3H Mice; Lometrexol 25 mg/kg i.p. once a day for five days, folate-free diet plus 0.003% folate in drinking water): 0/10
Toxicity (Mice Dead/Total Mice) (C3H Mice; Lometrexol 50 mg/kg i.p. once a day for five days, folate-free diet plus 0.003% folate in drinking water): 0/10
clinical evidence of disease [2]: no clinical evidence of disease

Nc1nc(O)c2c(n1)NCC(CCCc1ccc(C(=O)NC(CCC(=O)O)C(=O)O)cc1)C2 (stereo not shown) [n = 3 X = H]
Kd (bovine FBP): 27.3 nM
